Patent US5550110A, “Endothelin Antagonists II” (Warner-Lambert Company, priority 1994, dated 1996)
Peptide text beside a SMILES is read from it.

What was measured:
[1] = test system: endothelin receptor (ETA), rabbit renal artery vascular smooth muscle cells; assay: Endothelin Receptor Binding Assay-A (ERBA-A), intact cell binding of [125I]-ET-1; conditions: [125I]-ET-1 25 pM
Method: The compounds of Formula I are valuable antagonists of endothelin. […] Thus, the compounds of Formula I were tested for their ability to inhibit [^125 I]-ET-1([^125 I]-Endothelin-1) binding in a receptor assay according to the following procedures: Endothelin Receptor Binding Assay-A (ERBA-A) Intact Cell Binding of [^125 I]-ET-1 The cells used were rabbit renal artery vascular smooth muscle cells grown in a 48-well dish (1 cm^2) (confluent cells). The assay buffer was a medium 199 containing Hanks salts and 25 mM Hepes buffer (Gibco 380-2350AJ), supplemented with penicillin/streptomycin/fungizone (0.5%) and bovine serum albumin (1 mg/mL). Amersham radioiodinated endothelin-1 [^125 I]-ET-1 was used at final concentration of 20,000 cpm/0.25 mL (25 pM). […] Second, remove the assay buffers, place the dish on ice, and add 150 μL of cold assay buffer described above to each well. Third, add […] each of cold [^125 I]-ET-1 and competing ligand to the solution (at the same time if possible). Next, place dish in a 37° C. water bath for about 2 hours and gently agitate the dish every 15 minutes. Discard the radioactive incubation mixture in the sink and wash wells 3 times with 1 mL of cold phosphate buffered saline. Last, add […] of 0.25 molar sodium hydroxide, agitate for 1 hour on a rotator, and then transfer the sodium hydroxide extract to gamma counting tubes and count the radioactivity.

[2] = test system: endothelin receptor, cultured rabbit renal artery vascular smooth muscle cells; assay: Inhibition of ET-1 stimulated arachidonic acid release (AAR-A); type: cell-based; conditions: ET-1 0.3 nM
Method: (§1) In Vitro Inhibition of ET-1 Stimulated Arachidonic Acid Release in Cultured Rabbit Vascular Smooth Muscle Cells (AAR-A) or CHO Cells Expressing Rat Recombinant ETB Receptor (AAR-B) by Compounds of Formula I
(§2) Antagonist activity is measured by the ability of added compounds to reduce endothelin-stimulated arachidonic acid release in cultured vascular smooth muscle cells as arachidonic acid release (AAR). [^3 H] Arachidonic Acid Loading Media (LM) is DME/F12+0.5% fetal calf serum (FCS)×0.25 mCi/mL [^3 H] arachidonic acid (Amersham). Confluent monolayers of cultured rabbit renal artery vascular smooth muscle cells (AAR-A) or CHO cells expressing rat recombinant ETB receptor (AAR-B) were incubated in 0.5 mL of the LM over 18 hours, at 37° C., in 5% CO2. The LM was aspirated and the cells were washed once with the assay buffer (Hank's balanced salt solution [BSS]+10 mM HEPES+fatty acid-free BSA (1 mg/mL)), and incubated for 5 minutes with 1 mL of the prewarmed assay buffer. This solution was aspirated, followed by an additional 1 mL of prewarmed assay buffer, and further incubated for another 5 minutes. A final 5-minute incubation was carried out in a similar manner. The same procedure was repeated with the inclusion of 10 μL of the test compound (1 nM to 1 μM) and 10 μL ET-1 (0.3 nM) and the incubation was extended for 30 minutes. This solution was then collected, […] of scintillation cocktail was added, and the amount of [^3 H] arachidonic acid was determined in a liquid scintillation counter.

[3] = target: T1, rat recombinant ETB receptor (CHO cells) (Rattus norvegicus, UniProt P21451); assay: Inhibition of ET-1 stimulated arachidonic acid release (AAR-B); type: cell-based; conditions: ET-1 0.3 nM
T1 construct: expressed in transfected cells; host or cells: CHO cells
T1 sequence (P21451 27-442): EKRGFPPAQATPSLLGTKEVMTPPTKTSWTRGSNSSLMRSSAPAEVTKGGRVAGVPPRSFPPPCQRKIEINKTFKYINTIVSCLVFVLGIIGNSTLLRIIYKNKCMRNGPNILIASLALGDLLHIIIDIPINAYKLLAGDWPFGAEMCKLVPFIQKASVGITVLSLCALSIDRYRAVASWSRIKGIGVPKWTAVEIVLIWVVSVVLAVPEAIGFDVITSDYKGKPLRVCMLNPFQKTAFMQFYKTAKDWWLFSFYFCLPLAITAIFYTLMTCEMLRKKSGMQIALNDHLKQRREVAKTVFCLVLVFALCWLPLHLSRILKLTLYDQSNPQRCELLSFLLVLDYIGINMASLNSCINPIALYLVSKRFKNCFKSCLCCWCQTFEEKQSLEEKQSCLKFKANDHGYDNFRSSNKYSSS
Method: as §1, §2

[4] = test system: ETA (rabbit femoral artery); conditions: ET-1 as agonist, endothelium-denuded rings
Excerpt: (§3) In Vitro Antagonism of ET-1 Stimulated Vasoconstriction in the Rabbit Femoral Artery (ETA) and Sarafotoxin 6c Stimulated Vasoconstriction in the Rabbit Pulmonary Artery (ETB)
(§4) Male New Zealand rabbits were killed by cervical dislocation and exsanguination. Femoral and pulmonary arteries were isolated, cleaned of connective tissue, and cut into 4-mm rings. The endothelium was denuded by placing the rings over hypodermic tubing (32 guage for femoral rings and 28 guage for pulmonary rings, Small Parts, Inc, Miami, Fla.) and gently rolling them. Denuded rings were mounted in 20 mL organ baths containing Krebs-bicarbonate buffer (composition in mM: NaCl, 118.2; NaHCO3, 24.8; KCl, 4.6; MgSO4 7.H2 O, 1.2; KH2 PO4, 1.2; CaCl2.2H2 O; Ca--Na2 EDTA, 0.026; dextrose, 10.0), that was maintained at 37° C. and gassed continuously with 5% CO2 in oxygen (pH 7.4). Resting tension was adjusted to 3.0 g for femoral and 4.0 g pulmonary arteries; the rings were left for 90 minutes to equilibrate.

[5] = target: T2, endothelin receptor (ETB), rat cerebellar membranes (Rattus norvegicus, UniProt P21451); assay: Endothelin Receptor Binding Assay-B (ERBA-B), [125I]-ET-1 binding in rat cerebellar membranes; conditions: [125I]-ET-1 25 pM, read-out: ERRA-B IC50
T2 construct: thaw one aliquot of frozen rat cerebellar membranes (2 mg protein in 0.5 mL); from tissue; host or cells: rat cerebellum (membranes)
T2 sequence (P21451 27-442): T1 sequence (P21451 27-442)
Method: Endothelin Receptor Binding Assay-B (ERBA-B) [^125 I]-ET-1 Binding in Rat Cerebellar Membranes
The tissue is made up of 20 mM tris(hydroxymethyl)aminomethane hydrochloride (Trizma) buffer, 2 mM ethylenediaminetetra acetate, 100 μM phenylmethylsulfonyl fluoride.
First, thaw one aliquot of frozen rat cerebellar membranes (2 mg protein in 0.5 mL). Next, add 0.5 mL membrane aliquot to 4.5 mL cold tissue buffer, polytron at 7,500 revolutions per minute for 10 seconds. Finally, dilute tissue suspension 1/100 (0.1 mL suspension+9.9 mL tissue buffer), polytron again, and place ice.
Medium 199 with Hank's salts plus 25 mM Hepes+1 mg/mL bovine serum albumin.
Amersham [^125 I]-ET-1 (aliquots of 2×10^6 cpm per […] aliquot of [^125 I]-ET-1 with 5.2 mL dilution buffer, place on ice until use (final concentration will be 20,000 cpm per tube, or 25 pM).
Add 50 μL each of cold [^125 ]-ET-1 and competing ligand to tubes on ice. Mix in 150 μL of tissue to each tube, vortex briefly, then tap to force all liquids to bottom (total assay volume=250 μL). Then place the tubes in a 37° C. water bath for 2 hours.
Add 2.5 mL cold wash buffer (50 mM Trizma buffer) to each tube, filter, and then wash tube with additional 2.5 mL wash buffer and add to filter. Finally, wash filters with an additional 2.5 mL of cold wash buffer.
Count filters for radioactivity in gamma counter.

[6] = target: ETB (rabbit pulmonary artery) (Oryctolagus cuniculus, UniProt Q9N0W7)
Excerpt: as §3, §4

[7] = test system: CaCO-2 cells (human colon adenocarcinoma cell line); type: in vitro ADME
Method: For experiments, the cells were counted, then diluted to 2.5×10^5 cells/mL for planting (400 μL per well) onto Snapwell culture membranes with 2.5 mL media in the lower chamber. Media in the […] was changed every 2 to 3 days. Cells used for this series of experiments were between passage 38 and 91. 2-[N-Morpholino]ethanesulfonic acid (MES)+25 mM glucose was used as incubation buffer for all the experiments and all incubation solutions were prepared to an osmotic pressure of 280 to 300 milliosmoles. The concentration of the endothelin antagonist being studied (for all experiments) was 100 μM and another endothelin antagonist with similar HPLC characteristics (retention time 2-3 minutes from the ET antagonist being studied, and similar chemical characteristics) was used at a concentration of 25 μM as an internal standard to compensate for any injection error. Prior to the start of the experiment, the transepithelial electrical resistance (TEER) was measured for each Snapwell (in media) at three points of the membrane. […] The membranes were washed by swirling in 0.9% normal saline and mounted in the pretreated diffusion chambers [0.1 mg/mL human serum albumin for 1 to 2 hours at 37° C. with O2 bubbling followed by air drying at 37° C. overnight, then with 4.5 to 5.0 mL dosing solution (MES+glucose+^14 C-PEG-4000 (5000 dpm/50 μL)+drug) for 5 minutes and 4.5 to 5.0 mL MES+glucose rinse just before the experiment.] The apical (donor) side was filled with 4.5 to 5.0 mL dosing solution, the basolateral (receiver) side with MES+glucose. Samples were removed from the donor and receiver compartments over the course of the experiment and analyzed for ^14 C-PEG 4000 (cell membrane integrity) and endothelin content.

[8] = target: T3, ETB (porcine pulmonary arteries) (Sus scrofa, UniProt P35463); conditions: isolated, endothelium-intact porcine pulmonary arteries; cited from earlier work
T3 construct: host or cells: isolated, endothelium-intact porcine pulmonary arteries
T3 sequence (P35463 27-443): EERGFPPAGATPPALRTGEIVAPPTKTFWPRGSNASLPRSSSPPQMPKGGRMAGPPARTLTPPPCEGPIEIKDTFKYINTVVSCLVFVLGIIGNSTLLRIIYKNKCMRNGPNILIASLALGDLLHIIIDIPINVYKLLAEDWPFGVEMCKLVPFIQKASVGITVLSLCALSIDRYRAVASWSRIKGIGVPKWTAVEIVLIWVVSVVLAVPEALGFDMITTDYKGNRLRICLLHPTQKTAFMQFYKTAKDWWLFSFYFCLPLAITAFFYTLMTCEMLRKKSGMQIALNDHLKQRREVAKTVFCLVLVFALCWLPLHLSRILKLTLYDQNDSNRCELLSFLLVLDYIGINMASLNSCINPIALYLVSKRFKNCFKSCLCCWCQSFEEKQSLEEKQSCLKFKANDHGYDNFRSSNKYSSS

ETB (rabbit pulmonary artery), sequence (Q9N0W7 27-441): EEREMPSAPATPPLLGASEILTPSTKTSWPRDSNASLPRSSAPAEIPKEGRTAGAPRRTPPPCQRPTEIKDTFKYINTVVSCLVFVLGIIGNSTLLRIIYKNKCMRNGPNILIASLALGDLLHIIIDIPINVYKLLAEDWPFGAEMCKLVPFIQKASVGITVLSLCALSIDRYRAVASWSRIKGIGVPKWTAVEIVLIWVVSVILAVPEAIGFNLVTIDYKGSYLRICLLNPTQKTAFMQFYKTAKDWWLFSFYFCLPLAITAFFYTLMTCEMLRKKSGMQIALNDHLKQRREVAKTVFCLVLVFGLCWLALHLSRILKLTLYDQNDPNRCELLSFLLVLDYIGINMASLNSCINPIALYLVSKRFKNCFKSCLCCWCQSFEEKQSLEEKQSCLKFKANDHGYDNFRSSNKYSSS

| Molecule | IC50 [1] [nM] | IC50 [2] [nM] | IC50 [3] [nM] | pA2 Femoral [4] | IC50 [5] [nM] | Kb [6] [nM] | absorption in the gut suggested by CaCO-2 values [7] | effect on vascular tone [8] |
| --- | --- | --- | --- | --- | --- | --- | --- | --- |
| CC[C@H](C)[C@H](NC(=O)[C@H](CC(=O)O)NC(=O)[C@H](CC(C)C)NC(=O)[C@H](N)C1c2ccccc2CCc2ccccc21)C(=O)N[C@H](C(=O)N[C@@H](Cc1c[nH]c2ccccc12)C(=O)O)[C@@H](C)CC [Example 2, D-Bhg-Leu-Asp-Ile-Ile-Trp] (HELM PEPTIDE1{[N[C@@H](C(=O)[*:2])C1c2ccccc2CCc2ccccc21].L.D.I.I.W}$$$$V2.0) | 450 | 100 | 9600 | 5.7 | 2100 | – | – | – |
| CC[C@H](C)[C@H](NC(=O)[C@H](CC(=O)O)NC(=O)[C@H](CC(C)C)NC(=O)[C@H](NC(C)=O)C1c2ccccc2C=Cc2ccccc21)C(=O)N[C@H](C(=O)N[C@@H](Cc1c[nH]c2ccccc12)C(=O)O)[C@@H](C)CC [Example 6, Ac-D-Bheg-Leu-Asp-Ile-Ile-Trp] (HELM PEPTIDE1{[ac].[O=C([C@H](N[*:1])C1c2ccccc2C=Cc2ccccc21)[*:2]].L.D.I.I.W}$$$$V2.0) | 5 | 3 | 17 | 6.8 | 19 | 39.8 | – | – |
| CC[C@H](C)[C@H](NC(=O)[C@H](CC(=O)O)NC(=O)[C@H](CCCN)NC(=O)[C@H](NC(C)=O)C1c2ccccc2CCc2ccccc21)C(=O)N[C@H](C(=O)N[C@@H](Cc1c[nH]c2ccccc12)C(=O)O)[C@@H](C)CC [Example 7, Ac-D-Bhg-Orn-Asp-Ile-Ile-Trp] (HELM PEPTIDE1{[ac].[O=C([C@H](N[*:1])C1c2ccccc2CCc2ccccc21)[*:2]].[Orn].D.I.I.W}$$$$V2.0) | 22 | 37 | – | 6.5 | 1500 | – | – | – |
| CC[C@H](C)[C@H](NC(=O)[C@H](CC(=O)O)NC(=O)[C@H](CCC(=O)O)NC(=O)[C@H](NC(C)=O)C1c2ccccc2CCc2ccccc21)C(=O)N[C@H](C(=O)N[C@@H](Cc1c[nH]c2ccccc12)C(=O)O)[C@@H](C)CC [Example 8, Ac-D-Bhg-Glu-Asp-Ile-Ile-Trp] (HELM PEPTIDE1{[ac].[O=C([C@H](N[*:1])C1c2ccccc2CCc2ccccc21)[*:2]].E.D.I.I.W}$$$$V2.0) | 5.5 | 7 | 27 | 6.5 | 22 | 100 | – | – |
| CC[C@H](C)[C@H](NC(=O)[C@@H](NC(=O)[C@@H](CC(=O)O)NC(=O)[C@H](CC(C)C)NC(=O)[C@H](NC(C)=O)C1c2ccccc2CCc2ccccc21)[C@@H](C)CC)C(=O)N[C@@H](Cc1c[nH]c2ccccc12)C(=O)O [Example 16, Ac-D-Bhg-Leu-D-Asp-Ile-Ile-Trp] (HELM PEPTIDE1{[ac].[O=C([C@H](N[*:1])C1c2ccccc2CCc2ccccc21)[*:2]].L.[dD].I.I.W}$$$$V2.0) | 140 | – | – | – | 400 | – | 5-10% | – |
| ET[1,3,11,15-Ala]: linear ET analog, reported selective ETB agonist (ASASSLMDKEAVYFAHLDIIW; Endothelin-1; UniProt P05305 53-73, looked up, variant C1A C3A C11A C15A) | – | – | – | – | – | – | – | caused vasorelaxation |
| ET[6-21, 1,3,11,15-Ala] | – | – | – | – | – | – | – | caused vasorelaxation |
| ET[8-21,11,15-Ala] | – | – | – | – | – | – | – | caused vasorelaxation |
| N-Acetyl-ET[10-21,11,15-Ala] | – | – | – | – | – | – | – | caused vasorelaxation |
